Source: patent US10501492B2, “Antibiotic compounds” (priority 2009, dated 2019)

Legend:
S. aureus = assay: MIC determination, Macro-broth dilution method (NCCLS); assay type: cell-based, Staphylococcus aureus
From the text: (§1) The in-vitro potency was established by minimum inhibitory concentration (MIC) determinations of the compounds of Formula I(a) and Formula I(b) against bacterial strains, by using the Macro-broth dilution method as per National Committee for Clinical Laboratory Standards (2000) guidelines (Methods for Dilution Antimicrobial Susceptibility Tests for Bacteria that Grow Aerobically—Fifth Edition: Approved Standard M7-A5. NCCLS, Wayne, Pa., USA). Mueller-Hinton broth was used as nutrient medium for the assay, unless stated otherwise. PM181104 (PCT publication no. WO2007119201) was used as known standard in all in-vitro experiments. For preparation of the stock solution the compounds of Formula I(a) and Formula I(b) were dissolved in chloroform (5% of the total required volume) and diluted using methanol (95% of the total required volume).

E. faecium = assay: as above; assay type: cell-based, Enterococcus faecium; conditions: for Minimal Inhibitory Concentration: E. faecium, R-2 (VRE) (Table 5)
From the text: as §1

M. tuberculosis H37Rv = assay: Antimycobacterial activity, Luciferase reporter phage assay; assay type: cell-based, Mycobacterium tuberculosis; conditions: 72 hours
[1] = Solubility (physical properties)
S. epidermidis = assay: MIC determination, Macro-broth dilution method (NCCLS); assay type: cell-based, Staphylococcus epidermidis
From the text: as §1

Bacillus cereus (121) = assay: as above; assay type: cell-based
From the text: as §1

[2] = tested on: Bacillus megaterium FH1127 (124); assay: as above; assay type: cell-based
From the text: as §1

[3] = tested on: Bacillus subtilis ATCC 6633 (123); assay: as above; assay type: cell-based
From the text: as §1

[4] = S. aureus 209P (MSSA) (Table 5)
[5] = S. aureus E710, (MRSA) (Table 5)
[6] = in chloroform, ethyl acetate, methanol

C=C(NC(=O)c1csc(C2=NC3c4csc(n4)C4NC(=O)c5csc(n5)C(C(C)(O)C(C)O)NC(=O)C5CSC(=N5)/C(=C\C)NC(=O)C(C(C)O)NC(=O)c5csc(n5)C3(CC2)NC(=O)C(C)NC(=O)C(=C)NC(=O)C(C)NC(=O)C(C(C)C)NC2C=Cc3c(C(C)O)cc(nc3C2O)C(=O)OC4C)n1)C(=O)NC(C)C(N)=O (stereo not shown) [Compound of Formula I(b)]
Minimal Inhibitory Concentration (S. aureus; [4]): 0.25 to 0.5 µg/mL
Minimal Inhibitory Concentration (S. aureus; [5]): 2 µg/mL
Minimal Inhibitory Concentration (E. faecium): 2 µg/mL
% reduction in RLU (M. tuberculosis H37Rv; 0.5 μg/mL): 28.87%
% reduction in RLU (M. tuberculosis H37Rv; 5 μg/mL): 54.83%
% reduction in RLU (M. tuberculosis H37Rv; 10 μg/mL): 76.73%
Solubility [1, 6]: Soluble
Solubility ([1]; in water): insoluble

C=C(NC(=O)C(=C)NC(=O)c1csc(C2=NC3c4csc(n4)C4NC(=O)c5csc(n5)C(C(C)(O)C(C)O)NC(=O)C5CSC(=N5)/C(=C\C)NC(=O)C(C(C)O)NC(=O)c5csc(n5)C3(CC2)NC(=O)C(C)NC(=O)C(=C)NC(=O)C(C)NC(=O)C(C(C)C)NC2C=Cc3c(C(C)O)cc(nc3C2O)C(=O)OC4C)n1)C(N)=O (stereo not shown) [Compound of Formula I(a)]
Minimal Inhibitory Concentration (S. aureus; [4]): 0.064 to 0.125 µg/mL
MIC (S. aureus; S. aureus 209 P, MSSA (Table 4)): 0.063 µg/mL
MIC (S. aureus; S. aureus 503, MRSA, 62): >1 µg/mL
MIC (S. aureus; S. aureus 789, MRSA, 64): >1 µg/mL
MIC (S. aureus; S. aureus ATCC 33591, MRSA): 0.125 µg/mL
MIC (S. aureus; S. aureus C1 MRSA 2): 0.25 µg/mL
MIC (S. aureus; S. aureus C1 MRSA 3): 0.25 µg/mL
MIC (S. aureus; S. aureus C1 MRSA 5): 0.25 µg/mL
MIC (S. aureus; S. aureus C1 MRSA 7): 0.125 µg/mL
MIC (S. aureus; S. aureus C1 MRSA 8): 0.25 µg/mL
MIC (S. aureus; S. aureus C1 MRSA 9): 0.25 µg/mL
MIC (S. aureus; S. aureus C1 MRSA 10): 0.25 µg/mL
MIC (S. aureus; S. aureus C1 MRSA 13): 0.25 µg/mL
MIC (S. aureus; S. aureus C1 MRSA 16): 0.25 µg/mL
MIC (S. aureus; S. aureus C1 MRSA 17): 0.125 µg/mL
MIC (S. aureus; S. aureus C1 MRSA 20): 0.125 µg/mL
MIC (S. aureus; S. aureus C1 MRSA 21): 0.125 µg/mL
MIC (S. aureus; S. aureus C1 MRSA 22): 0.25 µg/mL
MIC (S. aureus; S. aureus C1 MRSA 23): 0.016 µg/mL
MIC (S. aureus; S. aureus C1 MRSA 24): 0.25 µg/mL
MIC (S. aureus; S. aureus C1 MRSA 25): 0.15 µg/mL
Minimal Inhibitory Concentration (S. aureus; [5]): 0.125 µg/mL
MIC (S. aureus; S. aureus E710, MRSA (Table 4)): 0.125 µg/mL
MIC (S. aureus; S. aureus E712, MRSA Erythro^R, 59): 0.25 µg/mL
MIC (S. aureus; S. aureus KEM MRSA 1): 0.25 µg/mL
MIC (S. aureus; S. aureus KEM MRSA 2): 0.25 µg/mL
MIC (S. aureus; S. aureus KEM MRSA 3): 0.25 µg/mL
MIC (S. aureus; S. aureus KEM MRSA 4): 0.125 µg/mL
MIC (S. aureus; S. aureus KEM MRSA 5): 0.125 µg/mL
MIC (S. aureus; S. aureus MRSA 3 lilavati): 0.125 µg/mL
MIC (S. aureus; S. aureus Misk MRSA 35): 0.125 µg/mL
MIC (S. aureus; S. aureus Misk MRSA 37): 0.125 µg/mL
MIC (S. aureus; S. aureus Misk MRSA 38): 0.125 µg/mL
MIC (S. aureus; S. aureus SG 511, MRSA, 63): 1 µg/mL
MIC (S. epidermidis; S. epidermidis 823, Teicho^R, 230): 0.25 µg/mL
MIC (S. epidermidis; S. epidermidis 2361 W, 246): 0.25 µg/mL
MIC (S. epidermidis; S. epidermidis 4264 I (1) W, 247): 0.125 µg/mL
MIC (S. epidermidis; S. epidermidis 6098, Erythro^R, 233): >1 µg/mL
MIC (S. epidermidis; S. epidermidis 6729 II W, Erythro^R, 236): 0.125 µg/mL
MIC (S. epidermidis; S. epidermidis Pat 01 IV, 251): 0.25 µg/mL
MIC (E. faecium; E. faecium C1 VRE 26): 0.25 µg/mL
MIC (E. faecium; E. faecium C1 VRE 27): 0.25 µg/mL
MIC (E. faecium; E. faecium C1 VRE 28): 0.125 µg/mL
MIC (E. faecium; E. faecium C1 VRE 31): 0.5 µg/mL
MIC (E. faecium; E. faecium C1 VRE 33): 0.125 µg/mL
MIC (E. faecium; E. faecium C1 VRE 34): 0.25 µg/mL
MIC (E. faecium; E. faecium KEM VRE 1): 0.25 µg/mL
MIC (E. faecium; E. faecium KEM VRE 2): 0.5 µg/mL
MIC (E. faecium; E. faecium KEM VRE 3): 0.25 µg/mL
MIC (E. faecium; E. faecium KEM VRE 4): 0.5 µg/mL
MIC (E. faecium; E. faecium KEM VRE 5): 0.25 µg/mL
MIC (E. faecium; E. faecium R-2 (VRE) (Table 4)): 0.25 µg/mL
Minimal Inhibitory Concentration (E. faecium): 0.125 µg/mL
MIC (E. faecium; Enterococcus faecium, VSE (322)): 0.125 µg/mL
MIC (Bacillus cereus (121)): 0.031 µg/mL
MIC [2]: 0.125 µg/mL
MIC [3]: 0.031 µg/mL
% reduction in RLU (M. tuberculosis H37Rv; 0.5 μg/mL): 36.36%
% reduction in RLU (M. tuberculosis H37Rv; 5 μg/mL): 77.17%
% reduction in RLU (M. tuberculosis H37Rv; 10 μg/mL): 83.76%
Solubility [1, 6]: Soluble
Solubility ([1]; in water): insoluble
